Ends that are not written are not given here.
The compounds below were run on human red blood cells (assay: Hemolytic assay). Settings: human RBCs in PBS, 37°C, 1 h; representative of 4 independent determinations.
Type: cell-based
In the case of CC(C)C[C@H](NC(=O)[C@H](CCCCN)NC(=O)[C@H](C)NC(=O)[C@H](CC(C)C)NC(=O)[C@H](CCCCN)NC(=O)[C@H](CCCCN)NC(=O)[C@H](C)NC(=O)[C@H](CC(C)C)NC(=O)[C@H](CCCCN)NC(=O)[C@H](C)NC(=O)[C@H](CC(C)C)NC(=O)[C@@H](N)CCCCN)C(=O)N[C@@H](C)C(=O)N[C@@H](CCCCN)C(N)=O [PAP], the “HD10 (peptide concentration that results in lysis of 10% red blood cells)” value is reported as 64 μm. GGHGLLKRIKTLL-NH2 [GGH–anoplin] was tested, and the “HD10 (peptide concentration that results in lysis of 10% red blood cells)” value was 16 μm. GLLKRIKTLL-NH2 [Anoplin] was tested, and the “HD10 (peptide concentration that results in lysis of 10% red blood cells)” value was greater than 64 μm. In the case of RAGLQFPVGRVHRLLRK-NH2 [sh-Buforin], the “HD10 (peptide concentration that results in lysis of 10% red blood cells)” value is reported as 64 μm.
